22 molecules from patent US11873295B2, “Allosteric chromenone inhibitors of phosphoinositide 3-kinase (PI3K) for the treatment of disease” (Petra Pharma Corporation, priority 2021, dated 2024) can be followed below.

Assay [1] addresses T1, human full length PIK3KA Wild-type (p110α/p85α complex) (Homo sapiens, UniProt P42336).
T1 construct: Recombinant, catalytically active human full length PIK3KA Wild-type and H1047R mutant were purchased as 1:1 complex; 6xHis (N); purchased EMD Millipore Sigma 14-602M
Kind of assay: PI3K-alpha kinase (PIK3CA) biochemical activity, wild-type, ADP-Glo. As to conditions: PI3K-α (PIK3CA) biochemical, Soy PI lipid substrate. The essentials: (§1)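 ADP formation, read by ADP-Glo, is run to about 10% ATP turnover at 27 °C with 20 μM ATP and 50 μM PIP2diC8 or soy PI. WT or H1047R p110α/p85α (1–5 nM) is pre-incubated 1 h with compound in HEPES pH 7.4/MgCl2/Triton buffer, 1% DMSO. 10-point 1:3 series, logistic IC50 versus no-enzyme and DMSO controls.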
On the technique in general: In ADP-Glo the light output rises with the ADP produced.

In assay [2] the target is T2, human full length PIK3KA H1047R mutant (p110α/p85α complex) (Homo sapiens, UniProt P42336, H1047R).
T2 construct: Recombinant, catalytically active human full length PIK3KA Wild-type and H1047R mutant were purchased as 1:1 complex; 6xHis (N); purchased EMD Millipore Sigma 14-792M
T2 sequence (P42336 whole entry H1047R): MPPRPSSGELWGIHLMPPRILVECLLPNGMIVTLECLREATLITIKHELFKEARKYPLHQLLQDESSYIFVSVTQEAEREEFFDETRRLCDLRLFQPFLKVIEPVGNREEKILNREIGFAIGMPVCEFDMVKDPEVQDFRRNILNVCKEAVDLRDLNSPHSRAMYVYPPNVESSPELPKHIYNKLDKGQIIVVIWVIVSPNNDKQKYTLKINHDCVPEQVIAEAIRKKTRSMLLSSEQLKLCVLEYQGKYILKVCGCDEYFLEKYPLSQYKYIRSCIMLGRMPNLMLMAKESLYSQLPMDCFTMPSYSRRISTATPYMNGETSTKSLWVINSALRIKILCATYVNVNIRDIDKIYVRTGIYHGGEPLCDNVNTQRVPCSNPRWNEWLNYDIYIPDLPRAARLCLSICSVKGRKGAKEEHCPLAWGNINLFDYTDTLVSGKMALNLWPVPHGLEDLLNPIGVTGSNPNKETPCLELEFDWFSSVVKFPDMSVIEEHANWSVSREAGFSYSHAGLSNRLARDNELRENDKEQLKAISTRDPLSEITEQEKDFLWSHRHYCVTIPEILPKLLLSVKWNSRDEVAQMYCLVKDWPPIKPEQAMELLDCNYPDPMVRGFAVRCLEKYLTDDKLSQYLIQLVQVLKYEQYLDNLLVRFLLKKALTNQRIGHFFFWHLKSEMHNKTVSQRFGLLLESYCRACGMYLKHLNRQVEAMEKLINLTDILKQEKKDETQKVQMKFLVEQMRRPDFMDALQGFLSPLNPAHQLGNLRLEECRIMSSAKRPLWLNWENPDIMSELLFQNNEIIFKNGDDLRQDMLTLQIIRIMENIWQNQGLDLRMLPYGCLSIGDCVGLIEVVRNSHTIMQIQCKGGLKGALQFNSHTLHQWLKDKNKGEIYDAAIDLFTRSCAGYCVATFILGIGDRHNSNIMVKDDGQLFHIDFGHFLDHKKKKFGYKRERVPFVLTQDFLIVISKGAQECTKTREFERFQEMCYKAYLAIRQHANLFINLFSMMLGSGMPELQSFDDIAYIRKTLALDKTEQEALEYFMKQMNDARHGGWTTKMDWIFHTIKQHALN
T2 sequence (P27986 whole entry partner): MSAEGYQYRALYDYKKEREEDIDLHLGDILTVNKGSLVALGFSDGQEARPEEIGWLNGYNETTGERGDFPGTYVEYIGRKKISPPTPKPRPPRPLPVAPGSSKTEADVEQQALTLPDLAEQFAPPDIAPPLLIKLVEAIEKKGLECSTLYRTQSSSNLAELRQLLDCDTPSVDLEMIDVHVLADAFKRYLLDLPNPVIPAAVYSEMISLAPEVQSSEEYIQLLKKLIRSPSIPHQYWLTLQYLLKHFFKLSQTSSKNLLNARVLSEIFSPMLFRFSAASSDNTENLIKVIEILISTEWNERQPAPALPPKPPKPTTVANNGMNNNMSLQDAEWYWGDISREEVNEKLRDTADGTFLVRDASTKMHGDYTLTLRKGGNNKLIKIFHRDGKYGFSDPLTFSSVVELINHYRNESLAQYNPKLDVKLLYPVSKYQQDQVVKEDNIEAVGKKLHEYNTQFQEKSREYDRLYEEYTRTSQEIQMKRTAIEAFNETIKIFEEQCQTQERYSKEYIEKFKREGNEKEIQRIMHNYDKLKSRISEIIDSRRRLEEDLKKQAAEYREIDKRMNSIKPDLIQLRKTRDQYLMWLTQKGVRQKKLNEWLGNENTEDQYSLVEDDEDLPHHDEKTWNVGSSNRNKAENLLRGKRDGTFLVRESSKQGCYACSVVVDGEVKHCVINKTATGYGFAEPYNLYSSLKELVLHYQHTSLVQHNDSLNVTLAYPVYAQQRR
Briefly: PI3K-alpha kinase (PIK3CA) biochemical activity, H1047R mutant, ADP-Glo. As to conditions: PI3K-α (PIK3CA) biochemical, H1047R mutant, Soy PI lipid substrate. The method, boiled down:
as §1

The subject of assay [3] is PI3K-α (PIK3CA) in MDA-MB-453 cells. Kind of assay: PI3K-alpha kinase (PIK3CA) activity in vitro cell based assay, MDA-MB-453 cells, AlphaLisa SureFire. The note with it: 0% FBS, 3 hours treatment, relative IC50. The method, boiled down: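 MDA-MB-453 cells in serum-free MEM with 1 μg/mL insulin treated 3 h with 10-point 1:3 compound dilutions, 0.3% DMSO. Lysates read by AlphaLisa SureFire; percent inhibition relative to DMSO (max) and 1 μM GDC-0032 (min), duplicate means fitted to 4-parameter logistic for relative IC50.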
(Alpha assays give light when donor and acceptor beads are brought close together.)

In the case of `Cc1cc([C@@H](C)Nc2ccccc2C(=O)O)c2oc(-c3ccccc3)c(NCCC(=O)O)c(=O)c2c1` [Example 171, 2-[[(1R)-1-[3-(2-Carboxyethylamino)-6-methyl-4-oxo-2-phenyl-chromen-8-yl]ethyl]amino]benzoic acid 2,2,2-trifluoroacetic acid], the IC50 in assay [1] was over 10000 nM; in assay [2], 500 to 1000 nM; in assay [3] (Homo sapiens, MDA-MB-453, 3 h), over 500 nM.

Consider `Cc1cc([C@@H](C)Nc2ccc(C)nc2C(=O)O)c2oc(-c3ccccc3)c(C)c(=O)c2c1` [Example 39, 3-[[(1R)-1-(3,6-Dimethyl-4-oxo-2-phenyl-chromen-8-yl)ethyl]amino]-6-methyl-pyridine-2-carboxylic acid], for which the IC50 in assay [1] is 1000 to 5000 nM; in assay [2] it was under 500 nM; in assay [3] (Homo sapiens, MDA-MB-453, 3 h) it was under 50 nM.

With `COc1ccc(-c2cc(=O)c3cc(C)cc([C@@H](C)Nc4ccccc4C(=O)O)c3o2)cc1` [Example 66, 2-[[(1R)-1-[2-(4-Methoxyphenyl)-6-methyl-4-oxo-chromen-8-yl]ethyl]amino]benzoic acid 2,2,2-trifluoroacetic acid], the IC50 in assay [1] was 1000 to 5000 nM; in assay [2] it was under 500 nM; in assay [3] (Homo sapiens, MDA-MB-453, 3 h), under 50 nM.

`Cc1cc([C@@H](C)Nc2ccc(Cl)cc2C(=O)O)c2oc(-c3ccccc3)c(C)c(=O)c2c1` [Example 41, 5-Chloro-2-[[(1R)-1-(3,6-dimethyl-4-oxo-2-phenyl-chromen-8-yl)ethyl]amino]benzoic acid]: the IC50 in assay [1] was 1000 to 5000 nM; in assay [2], under 500 nM; in assay [3] (Homo sapiens, MDA-MB-453, 3 h), under 50 nM.

Take `Cc1c(-c2ccccc2)oc2c([C@@H](C)Nc3ccccc3C(=O)O)cc(C(F)(F)F)cc2c1=O` [Example 102, 2-[[(1R)-1-[3-Methyl-4-oxo-2-phenyl-6-(trifluoromethyl)-chromen-8-yl]ethyl]amino]benzoic acid]: the IC50 in assay [1] was 1000 to 5000 nM; in assay [2], under 500 nM; in assay [3] (Homo sapiens, MDA-MB-453, 3 h), under 50 nM.

Consider `Cc1c(-c2ccccc2)oc2c([C@@H](C)Nc3ccccc3C(=O)O)cc(F)cc2c1=O` [Example 84, 2-[[(1R)-1-(6-Fluoro-3-methyl-4-oxo-2-phenyl-chromen-8-yl)ethyl]amino]benzoic acid 2,2,2-trifluoroacetic acid], for which the IC50 in assay [1] was 5000 to 10000 nM; in assay [2], under 500 nM; in assay [3] (Homo sapiens, MDA-MB-453, 3 h), over 500 nM.

As to `Cc1cc(C(C)Nc2ccccc2C(=O)O)c2oc(-c3ccccc3)c(F)c(=O)c2c1` (stereo not drawn) [Example 111, 2-[1-(3-Fluoro-6-methyl-4-oxo-2-phenyl-chromen-8-yl)ethylamino]benzoic acid 2,2,2-trifluoroacetic acid], the IC50 is 1000 to 5000 nM in assay [1]; under 500 nM in assay [2]; under 50 nM in assay [3] (Homo sapiens, MDA-MB-453, 3 h).

`Cc1cc([C@@H](C)Nc2ccccc2C(=O)O)c2oc(-c3cccc(C(C)(C)C(N)=O)c3)c(C)c(=O)c2c1` [Example 118, 2-[[(1R)-1-[2-[3-(2-Amino-1,1-dimethyl-2-oxo-ethyl)phenyl]-3,6-dimethyl-4-oxo-chromen-8-yl]ethyl]amino]benzoic acid 2,2,2-trifluoroacetic acid]: the IC50 in assay [1] was 1000 to 5000 nM; in assay [2] it was under 500 nM; in assay [3] (Homo sapiens, MDA-MB-453, 3 h), 100 to 500 nM.

Turning to `Cc1cc([C@@H](C)Nc2cccc(F)c2C(=O)O)c2oc(-c3ccccc3)c(C)c(=O)c2c1` [Example 69, 2-[[(1R)-1-(3,6-Dimethyl-4-oxo-2-phenyl-chromen-8-yl)ethyl]amino]-6-fluoro-benzoic acid], the IC50 was 500 to 1000 nM in assay [1]; under 500 nM in assay [2]; under 50 nM in assay [3] (Homo sapiens, MDA-MB-453, 3 h).

As to `Cc1cc([C@@H](C)Nc2ccc(C)nc2C(=O)O)c2oc(-c3cccc(C#N)c3)c(C)c(=O)c2c1` [Example 127, 3-[[(1R)-1-[2-(3-Cyanophenyl)-3,6-dimethyl-4-oxo-chromen-8-yl]ethyl]amino]-6-methyl-pyridine-2-carboxylic acid], the IC50 in assay [1] is 1000 to 5000 nM; in assay [2], under 500 nM; in assay [3] (Homo sapiens, MDA-MB-453, 3 h), 50 to 100 nM.

Turning to `Cc1cc([C@@H](C)Nc2ccccc2C(=O)O)c2oc(-c3ccc(-c4c[nH]nc4C)cc3)c(C)c(=O)c2c1` [Example 161, 2-[[(1R)-1-[3,6-Dimethyl-2-[4-(3-methyl-1H-pyrazol-4-yl)phenyl]-4-oxo-chromen-8-yl]ethyl]amino]benzoic acid], the half-inhibitory concentration (IC50) in assay [1] is 500 to 1000 nM; in assay [2], under 500 nM; in assay [3] (Homo sapiens, MDA-MB-453, 3 h) it was under 50 nM.

With `Cc1c(-c2ccccc2)oc2c([C@@H](C)Nc3cccnc3C(=O)O)cc(C(F)(F)F)cc2c1=O` [Example 122, 3-[[(1R)-1-[3-Methyl-4-oxo-2-phenyl-6-(trifluoromethyl)-chromen-8-yl]ethyl]amino]pyridine-2-carboxylic acid], the IC50 in assay [1] is over 10000 nM; in assay [2] it was 1000 to 5000 nM; in assay [3] (Homo sapiens, MDA-MB-453, 3 h), 50 to 100 nM.

As for `Cc1cc([C@@H](C)Nc2ccc(Cl)nc2C(=O)O)c2oc(-c3ccc(F)cc3F)c(C)c(=O)c2c1` [Example 131, 6-Chloro-3-[[(1R)-1-[2-(2,4-difluorophenyl)-3,6-dimethyl-4-oxo-chromen-8-yl]ethyl]amino]pyridine-2-carboxylic acid 2,2,2-trifluoroacetic acid], the IC50 in assay [1] was 1000 to 5000 nM; in assay [2], under 500 nM; in assay [3] (Homo sapiens, MDA-MB-453, 3 h), under 50 nM.

Take `Cc1cc(C(C)Nc2cccc(F)c2C(=O)O)c2oc(-c3cccc(F)c3)c(C)c(=O)c2c1` (single isomer, unassigned; isomer 1) [Example 105, 2-Fluoro-6-[1-[2-(3-fluorophenyl)-3,6-dimethyl-4-oxo-chromen-8-yl]ethylamino]benzoic acid, Isomer 1]: the IC50 in assay [1] is 1000 to 5000 nM; in assay [2], under 500 nM; in assay [3], under 50 nM.

As to `Cc1cc(C(C)Nc2ccccc2C(=O)O)c2oc(-c3ccccc3)c(F)c(=O)c2c1` (single isomer, unassigned; isomer 2) [Example 133, 2-[1-(3-Fluoro-6-methyl-4-oxo-2-phenyl-chromen-8-yl)ethylamino]benzoic acid, Isomer 2], the IC50 in assay [1] was 1000 to 5000 nM; in assay [2], under 500 nM; in assay [3], 50 to 100 nM.

For `Cc1cc(C(C)Nc2cccc(F)c2C(=O)O)c2oc(-c3cccc(F)c3)c(C)c(=O)c2c1` (stereo not drawn) [Example 95, 2-Fluoro-6-[1-[2-(3-fluorophenyl)-3,6-dimethyl-4-oxo-chromen-8-yl]ethylamino]benzoic acid 2,2,2-trifluoroacetic acid], the IC50 is 1000 to 5000 nM in assay [1]; under 500 nM in assay [2]; under 50 nM in assay [3] (Homo sapiens, MDA-MB-453, 3 h).

Turning to `Cc1cc([C@@H](C)Nc2cccnc2C(=O)O)c2oc(-c3ccccc3F)c(C)c(=O)c2c1` [Example 142, 3-[[(1R)-1-[2-(2-Fluorophenyl)-3,6-dimethyl-4-oxo-chromen-8-yl]ethyl]amino]pyridine-2-carboxylic acid], the IC50 in assay [1] was over 10000 nM; in assay [2], 1000 to 5000 nM; in assay [3] (Homo sapiens, MDA-MB-453, 3 h) it was 50 to 100 nM.

For the molecule `Cc1cc([C@@H](C)Nc2ccc(C)nc2C(=O)O)c2oc(-c3ccccc3F)c(C)c(=O)c2c1` [Example 148, 3-[[(1R)-1-[2-(2-Fluorophenyl)-3,6-dimethyl-4-oxo-chromen-8-yl]ethyl]amino]-6-methyl-pyridine-2-carboxylic acid], the IC50 in assay [1] was 5000 to 10000 nM; in assay [2], 500 to 1000 nM; in assay [3] (Homo sapiens, MDA-MB-453, 3 h) it was under 50 nM.

In the case of `C[C@@H](Nc1ccc(Cl)nc1C(=O)O)c1cc(C(F)(F)F)cc2c(=O)cc(-c3ccc(F)c(F)c3)oc12` [Example 88, 6-Chloro-3-[[(1R)-1-[2-(3,4-difluorophenyl)-4-oxo-6-(trifluoromethyl)-chromen-8-yl]ethyl]amino]pyridine-2-carboxylic acid], the IC50 was 1000 to 5000 nM in assay [1]; under 500 nM in assay [2]; under 50 nM in assay [3] (Homo sapiens, MDA-MB-453, 3 h).

Regarding `Cc1cc([C@@H](C)Nc2ccc(Cl)cc2C(=O)O)c2oc(-c3ccc(F)c(F)c3)c(C)c(=O)c2c1` [Example 146, 5-Chloro-2-[[(1R)-1-[2-(3,4-difluorophenyl)-3,6-dimethyl-4-oxo-chromen-8-yl]ethyl]amino]benzoic acid], the IC50 in assay [1] was 1000 to 5000 nM; in assay [2] it was 1000 to 5000 nM; in assay [3] (Homo sapiens, MDA-MB-453, 3 h) it was under 50 nM.

Consider `Cc1cc(C(C)Nc2cccc(F)c2C(=O)O)c2oc(-c3ccccc3F)cc(=O)c2c1` (single isomer, unassigned; isomer 2) [Example 108, 2-Fluoro-6-[1-[2-(2-fluorophenyl)-6-methyl-4-oxo-chromen-8-yl]ethylamino]benzoic acid, Isomer 2], for which the IC50 in assay [1] was over 10000 nM; in assay [2], 5000 to 10000 nM; in assay [3] (Homo sapiens, MDA-MB-453, 3 h) it was over 500 nM.

Take `COc1ncc(N[C@H](C)c2cc(C)cc3c(=O)c(C)c(-c4ccccc4)oc23)c(C(=O)O)n1` [Example 155, 2-Methoxy-5-[[(1R)-1-(3,6-dimethyl-4-oxo-2-phenyl-chromen-8-yl)ethyl]amino]pyrimidine-4-carboxylic acid 2,2,2-trifluoroacetic acid]: the IC50 in assay [1] was 1000 to 5000 nM; in assay [2] it was under 500 nM; in assay [3] (Homo sapiens, MDA-MB-453, 3 h), 100 to 500 nM.

In general, IC50 refers to the midpoint of a concentration-inhibition curve. The low end stands for greater potency in that assay, the high end for weaker potency in that assay.
